Measured values as given in article PMC10836395, “Investigation of how gate residues in the main channel affect the catalytic activity of Scytalidium thermophilum catalase” (Acta Crystallographica. Section D, Structural Biology, 2024).
Substitutions are numbered along the chain they refer to. Marks after values point to notes of the source that are not given here.

Assays:
[1] = biological target: CATPO T188A variant (Scytalidium thermophilum (Humicola insolens), UniProt M4GGR5, T207A); assay: biochemical
[2] = biological target: T1, CATPO E484D variant (Scytalidium thermophilum (Humicola insolens), UniProt M4GGR5, E503D); type: biochemical
[3] = biological target: CATPO E484A variant (Scytalidium thermophilum (Humicola insolens), UniProt M4GGR5, E503A); assay: Substrate-specificity analysis of the phenol oxidase activity; type: biochemical
[4] = biological target: T2, CATPO T188D variant (Scytalidium thermophilum (Humicola insolens), UniProt M4GGR5, T207D); assay: biochemical
[5] = biological target: T3, CATPO E484I variant (Scytalidium thermophilum (Humicola insolens), UniProt M4GGR5, E503I); assay: biochemical
[6] = biological target: T3, CATPO E484I variant; type: biochemical
[7] = biological target: T4, CATPO T188I variant (Scytalidium thermophilum (Humicola insolens), UniProt M4GGR5, T207I); assay: biochemical
[8] = biological target: T2, CATPO T188D variant; type: biochemical
[9] = biological target: T5, T188D (Mycothermus thermophilus, UniProt M4GGR5, T207D); assay: Spectrophotometric phenol oxidase assay without H2O2 at pH 7.0 and 60 °C, initial rates fitted to the Michaelis-Menten equation.; type: biochemical; settings: read-out: Phenol oxidase K m; n = 3
T5 construct: recombinant, pET-28-TEV-CATPO; contains heme b; Rz 0.5
T5 sequence (M4GGR5 20-717 T207D): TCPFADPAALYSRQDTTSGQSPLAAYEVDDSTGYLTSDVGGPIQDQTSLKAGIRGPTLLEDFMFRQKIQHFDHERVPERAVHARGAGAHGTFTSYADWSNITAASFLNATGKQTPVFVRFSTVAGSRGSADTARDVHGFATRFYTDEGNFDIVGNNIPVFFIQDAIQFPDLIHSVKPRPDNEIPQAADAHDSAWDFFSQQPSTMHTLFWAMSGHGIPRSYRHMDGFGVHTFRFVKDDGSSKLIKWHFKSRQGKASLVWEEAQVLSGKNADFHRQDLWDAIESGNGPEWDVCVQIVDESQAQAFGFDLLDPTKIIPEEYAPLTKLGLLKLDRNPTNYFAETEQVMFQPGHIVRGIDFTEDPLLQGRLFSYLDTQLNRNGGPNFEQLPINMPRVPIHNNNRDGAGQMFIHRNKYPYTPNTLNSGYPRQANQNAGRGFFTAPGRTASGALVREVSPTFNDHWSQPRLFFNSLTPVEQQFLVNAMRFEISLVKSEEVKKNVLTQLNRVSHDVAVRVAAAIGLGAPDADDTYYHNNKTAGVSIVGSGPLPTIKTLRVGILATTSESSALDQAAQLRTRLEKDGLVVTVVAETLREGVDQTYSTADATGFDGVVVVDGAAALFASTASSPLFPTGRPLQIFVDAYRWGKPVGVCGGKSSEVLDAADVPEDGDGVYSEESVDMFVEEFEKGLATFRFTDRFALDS
Protocol: (§1) All inhibition assays were performed in triplicate.

[10] = biological target: T6, CATPO (Mycothermus thermophilus, UniProt M4GGR5); assay: as above; type: biochemical; settings: n = 3
T6 construct: recombinant, pET-28-TEV-CATPO; contains heme d; Rz 0.8
T6 sequence (M4GGR5 20-717): T5 sequence (M4GGR5 20-717 T207D) with D188T
Protocol: as §1

[11] = biological target: T1, CATPO E484D variant; assay: biochemical
[12] = biological target: T4, CATPO T188I variant; type: biochemical
[13] = biological target: T7, CATPO T188F variant (Scytalidium thermophilum (Humicola insolens), UniProt M4GGR5, T207F); assay: biochemical
[14] = biological target: T7, CATPO T188F variant; type: biochemical
[15] = biological target: CATPO (Scytalidium thermophilum (Humicola insolens), UniProt M4GGR5); assay: Inhibition of catechol oxidation; type: biochemical; settings: catechol oxidation by CATPO; catechol 1 to 100 mM; read-out: K i
CATPO (Scytalidium thermophilum (Humicola insolens), UniProt M4GGR5), sequence (M4GGR5 entry or part of it): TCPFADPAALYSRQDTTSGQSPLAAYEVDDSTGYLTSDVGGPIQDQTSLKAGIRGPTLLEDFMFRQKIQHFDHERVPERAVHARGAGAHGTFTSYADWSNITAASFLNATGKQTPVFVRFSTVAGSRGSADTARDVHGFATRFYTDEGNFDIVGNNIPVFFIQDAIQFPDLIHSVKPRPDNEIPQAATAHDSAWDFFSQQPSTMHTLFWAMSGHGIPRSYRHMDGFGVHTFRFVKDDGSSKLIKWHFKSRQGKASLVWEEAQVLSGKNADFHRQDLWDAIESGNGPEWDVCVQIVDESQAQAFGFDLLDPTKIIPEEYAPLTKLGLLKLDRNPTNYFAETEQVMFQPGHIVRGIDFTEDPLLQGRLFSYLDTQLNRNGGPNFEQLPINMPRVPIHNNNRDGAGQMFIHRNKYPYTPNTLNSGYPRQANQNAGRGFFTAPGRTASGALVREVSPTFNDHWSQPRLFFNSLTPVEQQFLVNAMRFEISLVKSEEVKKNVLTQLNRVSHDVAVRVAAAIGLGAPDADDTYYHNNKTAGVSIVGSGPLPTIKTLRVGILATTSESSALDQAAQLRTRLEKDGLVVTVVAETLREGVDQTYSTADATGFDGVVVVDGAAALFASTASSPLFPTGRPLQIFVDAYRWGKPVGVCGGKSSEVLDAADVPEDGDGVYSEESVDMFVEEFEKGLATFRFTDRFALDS

T4 sequence (M4GGR5 entry or part of it T207I): as the sequence (M4GGR5 entry or part of it) above
T1 sequence (M4GGR5 entry or part of it E503D): as the sequence (M4GGR5 entry or part of it) above
T7 sequence (M4GGR5 entry or part of it T207F): as the sequence (M4GGR5 entry or part of it) above
T3 sequence (M4GGR5 entry or part of it E503I): as the sequence (M4GGR5 entry or part of it) above
T2 sequence (M4GGR5 entry or part of it T207D): as the sequence (M4GGR5 entry or part of it) above
CATPO E484A variant, sequence (M4GGR5 entry or part of it E503A): as the sequence (M4GGR5 entry or part of it) above
CATPO T188A variant, sequence (M4GGR5 entry or part of it T207A): as the sequence (M4GGR5 entry or part of it) above

Structure (SMILES): Oc1cccc(O)c1O [Pyrogallol, pyrogallol]
- Ki [1]: 4.1 ± 0.8 mM
- V max [2]: 16800 ± 300 mM/min
- k cat/K m [2]: 600 ± 50 s^−1 M^−1 (×10^2)
- K m ([2]; pH 7.0 (ABTS pH 5.0), 60°C): 40 ± 0.5 mM
- V max [3]: 50000 ± 156 mM/min
- k cat/K m [3]: 6000 ± 50 s^−1 M^−1 (×10^2)
- K m ([3]; pH 7.0 (ABTS pH 5.0), 60°C): 36 ± 0.7 mM
- Ki [4]: 55 ± 5.5 mM
- Ki [5]: 58 ± 1.8 mM
- V max [6]: 20300 ± 330 mM/min
- k cat/K m [6]: 3060 ± 30 s^−1 M^−1 (×10^2)
- K m ([6]; pH 7.0 (ABTS pH 5.0), 60°C): 40 ± 1.1 mM
- Ki [7]: 62 ± 2.5 mM
- V max [8]: 15000 ± 150 mM/min
- k cat/K m [8]: 5710 ± 200 s^−1 M^−1 (×10^2)
- K m ([8]; pH 7.0 (ABTS pH 5.0), 60°C): 41 ± 1.0 mM
- K m [9]: 41 ± 1 mM
- K m [10]: 40 ± 1.8 mM
- Ki [11]: 4.1 ± 0.7 mM
- V max [12]: 27400 ± 310 mM/min
- k cat/K m [12]: 3470 ± 256 s^−1 M^−1 (×10^2)
- K m ([12]; pH 7.0 (ABTS pH 5.0), 60°C): 38 ± 0.5 mM
- Ki [13]: 64 ± 6 mM
- V max [14]: 28100 ± 760 mM/min
- k cat/K m [14]: 3930 ± 250 s^−1 M^−1 (×10^2)
- K m ([14]; pH 7.0 (ABTS pH 5.0), 60°C): 37 ± 0.5 mM
- Ki [15]: 4.2 ± 0.8 mM
